Test results taken from patent US5602259A, “Method for producing 4-hydroxy-5-methyl-3[2H]-furanone and uses of same” (priority 1993, dated 1997).
pIC50: −log10 of the molar value.

Legend:
murine melanoma cells = experiment: Inhibitive effect on melanin formation in melanoma cells; format: cell-based; conditions: Mus musculus, 48 h, 37° C., by observing the color of the cells, read-out: concentration with inhibitive effect on melanin formation within melanoma cells
Experimental: (§1) 4-hydroxy-5-methyl-3[2H]-furanone obtained by the method of the invention has an excellent activity to inhibit melanin formation.
To a T-shaped flask containing […] of Eagle's medium containing 10% fetal calf essential medium was added murine melanoma cells in an amount of 5×10^4 cells/30 ml. […] After the cultivation, the cells were collected and examined for melanin formation of the cells by observing the color of the cells.

[1] = Anti-oxidation activity (2): prevention of oxidation of unsaturated fatty acid over time (FIG. 5); format: biochemical; conditions: 200 ppm, 37° C., pH 7.4
Experimental: (§2) An anti-oxidation activity of 4-hydroxy-5-methyl-3[2H]-furanone was examined as follows:
1.0 ml of 0.2M potassium phosphate buffer(pH 7.4) containing 2mg/ml of linolenic acid, 10 mg/ml of Tween-20 and 200 ppm of L-ascorbic acid, tocopherol or 4-hydroxy-5-methyl-3[2H]-furanone was allowed to stand at 37° C. for 24 hours. For a control, 1.0 ml of 0.2M potassium phosphate buffer(pH 7.4) containing 2 mg/ml of linolenic acid and 10 mg/ml of Tween-20 was employed.
The same procedure as that of Experimental Example 2 was carried out to evaluate the anti-oxidation activity of test compounds.
In FIG. 5, the longitudinal axis indicates an amount of fatty peroxide represented by an absorbance at 500 nm and the horizontal axis indicates the time in days.

tyrosinase = target: T1, tyrosinase (Agaricus bisporus, UniProt C7FF04); experiment: Tyrosinase-inhibiting action; format: biochemical; conditions: pH 6.8, 37° C., 10 minutes, tyrosine substrate
T1 construct: purchased SIGMA
Experimental: As an enzyme, tyrosinase purchased from SIGMA was used. […] Water were used to dilute the test compounds. As a control, 0.9 ml of 1:1 mixture of ethanol and water was used. […] The test tube was quickly cooled in an ice water bath to stop the reaction, and the absorbance was measured at 475 nm. The tyrosinase-inhibitory activities of the test compounds were calculated by using the following equation: [formula] From the inhibitions(%) of a series of dilutions of test compounds, IC50, i.e., the concentration of test compound which inhibit tyrosinase by 50% was calculated for each test compound.

[2] = Anti-oxidation activity (1): inhibition of autonomous oxidation of linolenic acid, absorbance at 500 nm; format: biochemical; conditions: for concentration showing 90% inhibition of autonomous oxidation of linolenic acid: pH 7.4, 37° C., 24 hours, for the extract: concentration of 4-hydroxy-5-methyl-3[2H]-furanone
Experimental: as §2
To 1.0 ml of 0.2M potassium phosphate buffer(pH 7.4) containing 2 mg/ml of linolenic acid and 10 mg/ml of Tween-20 was added the extract obtained from Lichrosorb RP-18 column in Example 1, which contains a serial concentrations of 10~2000 ppm of 4-hydroxy-5-methyl-3[2H]-furanone. […] The resulting mixture was allowed at 37° C. for 24 hours. 0.1 ml of the reaction mixture was taken and diluted with 9.7 ml of ethanol. 0.1 ml of 30% ammonium thiocyanide and 0.1 ml of a mixture of 5% ferrous ammonium sulfate and 3.5% […] were added, and 3 minutes later, an absorbance at 500 nm was measured to evaluate an automatic oxidation of fatty acid.

in vitro = format: cell-based; conditions: fibroblast cells
Text: as §1

T1 sequence (C7FF04 2-392 limits assumed): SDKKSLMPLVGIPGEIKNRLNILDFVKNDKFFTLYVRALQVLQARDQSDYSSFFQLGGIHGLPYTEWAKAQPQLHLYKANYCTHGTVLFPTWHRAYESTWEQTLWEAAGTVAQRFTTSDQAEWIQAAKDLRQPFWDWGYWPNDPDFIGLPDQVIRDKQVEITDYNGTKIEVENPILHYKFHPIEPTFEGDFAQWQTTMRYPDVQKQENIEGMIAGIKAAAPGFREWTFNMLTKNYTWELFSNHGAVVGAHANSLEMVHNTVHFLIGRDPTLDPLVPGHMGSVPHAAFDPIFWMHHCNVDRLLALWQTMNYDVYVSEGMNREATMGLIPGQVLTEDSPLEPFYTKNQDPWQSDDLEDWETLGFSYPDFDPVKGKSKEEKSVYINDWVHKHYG

Compound	minimal effective concentration (murine melanoma cells) [µg/mL]	prevention of oxidation of unsaturated fatty acid (in words) [1]	pIC50 (tyrosinase)	anti-oxidation activity (in words) ([2]; compared with maltol, kojic acid or L-ascorbic acid)	MCC at 48 h (in vitro) [µg/mL]	concentration showing 90% inhibition of autonomous oxidation of linolenic acid [2] [ppm]
CC1=C(O)C(=O)CO1 [4-hydroxy-5-methyl-3[2H]-furanone]	10 to 20	can prevent more efficiently the oxidation of unsaturated fatty acid than the same amount of L-ascorbic acid or α-tocopherol	4.28	superior over maltol, kojic acid or L-ascorbic acid	> 500	
O=C1O[C@H]([C@@H](O)CO)C(O)=C1O [ascorbic acid, L-ascorbic acid]					50	
O=c1cc(CO)occ1O [kojic acid]					> 500	600
Cc1occc(=O)c1O [maltol]						460
